Measured values reported in patent US8409836B2, “Treatment of cellulosic material and enzymes useful therein” (Roal Oy, priority 2005, dated 2013).

Key:
Assay type in all cases: biochemical
[1] = target: T1, Acremonium thermophilum ALKO4245 cellobiohydrolase At Cel7A (At CBH/Cel7A), recombinant, SEQ ID NO: 6 (Phialemonium thermophilum, UniProt A7WNT9); assay: Cellobiose inhibition constant, CNPLac as substrate
T1 sequence (A7WNT9 18-523): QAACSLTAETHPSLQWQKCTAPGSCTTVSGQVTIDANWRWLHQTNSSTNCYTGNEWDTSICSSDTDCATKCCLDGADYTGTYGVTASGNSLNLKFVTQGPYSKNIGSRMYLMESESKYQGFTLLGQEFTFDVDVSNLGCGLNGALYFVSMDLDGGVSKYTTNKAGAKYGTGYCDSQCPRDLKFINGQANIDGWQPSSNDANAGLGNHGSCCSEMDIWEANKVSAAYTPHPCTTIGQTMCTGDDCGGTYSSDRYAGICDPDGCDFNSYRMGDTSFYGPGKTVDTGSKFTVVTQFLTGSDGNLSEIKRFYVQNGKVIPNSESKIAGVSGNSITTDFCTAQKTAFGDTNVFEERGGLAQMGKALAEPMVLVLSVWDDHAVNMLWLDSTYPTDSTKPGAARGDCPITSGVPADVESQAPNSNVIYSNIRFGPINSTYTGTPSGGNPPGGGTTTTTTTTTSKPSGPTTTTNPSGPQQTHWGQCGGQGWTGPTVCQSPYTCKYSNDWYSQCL
Method: (§1) The Michaelis-Menten and cellobiose inhibition constants were determined from the cellobiohydrolases produced heterologously in T. reesei (Examples 14 and 15). The enzymes were purified as described in Example 2. Protein concentrations of purified enzymes were measured by their absorption at 280 nm using a theoretical molar extinction co-efficient, which were calculated from the amino acid sequences (Gill and von Hippel, 1989).
(§2) Kinetic constants (Km and kcat values) and cellobiose inhibition constant (Ki) for Tr CBHI/Cel7A, Ta CBH/Cel7A, At CBH/Cel7A and Ct CBH/Cel7A, were measured using CNPLac (2-Chloro-4-nitrophenyl-β-D-lactoside) as substrate at ambient temperature (22° C.) in 50 mM sodium phosphate buffer, pH 5.7. For the determination of the inhibition constant (Ki), eight different substrate concentrations (31-4000 μM) in the presence of a range of five inhibitor concentrations (0-100 μM or 0-400 μM), which bracket the Ki value, were used. All experiments were performed in microtiter plates and the total reaction volume was 200 μl. The initial rates were in each case measured by continuous monitoring the release of the chloro-nitrophenolate anion (CNP, 2-Chloro-4-nitrophenolate) through measurements at 405 nm using Varioscan (Thermolabsystems) microtiter plate reader. The results were calculated from CNP standard curve (from 0 to 100 μM). Enzyme concentrations used were: Tr CBHI/Cel7A 2.46 μM, Ta CBH/Cel7A 1.58 μM, Ct CBH/Cel7A 0.79 μM and At CBH/Cel7A 3 μM. The Km and kcat constants were calculated from the fitting of the Michaelis-Menten equation using the programme of Origin. Lineweaver-Burk plots, replots (LWB slope versus [Glc2; cellobiose]) and Hanes plots were used to distinguish between competitive and mixed type inhibition and to determine the inhibition constants (Ki).

[2] = target: T2, Chaetomium thermophilum ALKO4265 cellobiohydrolase Ct Cel7A (Ct CBH/Cel7A), recombinant, SEQ ID NO: 8 (Thermochaetoides thermophila, UniProt A7WNU1); assay: as above
T2 sequence (A7WNU1 19-532): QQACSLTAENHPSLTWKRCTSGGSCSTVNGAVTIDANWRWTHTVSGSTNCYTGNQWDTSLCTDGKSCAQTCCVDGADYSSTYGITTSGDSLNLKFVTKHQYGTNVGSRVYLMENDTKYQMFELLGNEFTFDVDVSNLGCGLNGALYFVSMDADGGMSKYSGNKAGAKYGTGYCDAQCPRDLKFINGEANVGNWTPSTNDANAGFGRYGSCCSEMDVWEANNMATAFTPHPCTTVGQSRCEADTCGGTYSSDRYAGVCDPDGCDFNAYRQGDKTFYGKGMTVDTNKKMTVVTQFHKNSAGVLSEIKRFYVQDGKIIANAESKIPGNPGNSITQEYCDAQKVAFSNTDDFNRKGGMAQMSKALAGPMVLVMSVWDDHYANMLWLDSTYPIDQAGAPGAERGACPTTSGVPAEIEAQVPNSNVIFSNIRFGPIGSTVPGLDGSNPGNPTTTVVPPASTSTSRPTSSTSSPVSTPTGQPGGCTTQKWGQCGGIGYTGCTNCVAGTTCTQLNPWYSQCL
Method: as §1, §2

[3] = target: T3, Thermoascus aurantiacus ALKO4242 cellobiohydrolase Ta Cel7A (Ta CBH/Cel7A), recombinant, SEQ ID NO: 2 (Thermoascus aurantiacus, UniProt A7WNU2); assay: as above
T3 sequence (A7WNU2 18-457): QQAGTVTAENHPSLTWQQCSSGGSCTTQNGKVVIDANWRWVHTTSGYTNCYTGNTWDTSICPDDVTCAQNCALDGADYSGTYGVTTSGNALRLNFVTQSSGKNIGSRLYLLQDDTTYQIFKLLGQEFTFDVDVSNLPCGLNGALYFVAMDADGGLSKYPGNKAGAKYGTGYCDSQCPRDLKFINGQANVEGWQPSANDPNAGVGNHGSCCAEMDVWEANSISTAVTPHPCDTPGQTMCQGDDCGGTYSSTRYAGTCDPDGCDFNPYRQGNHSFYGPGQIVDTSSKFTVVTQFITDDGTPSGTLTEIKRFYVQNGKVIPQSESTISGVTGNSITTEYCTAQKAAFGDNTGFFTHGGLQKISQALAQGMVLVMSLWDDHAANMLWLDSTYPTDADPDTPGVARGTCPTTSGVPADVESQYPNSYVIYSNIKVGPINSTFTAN
Method: as §1, §2

[4] = target: Trichoderma reesei cellobiohydrolase I Tr Cel7A (Tr CBHI/Cel7A) (Trichoderma reesei, UniProt A0A024RXP8); assay: as above
Sequence of Trichoderma reesei cellobiohydrolase I Tr Cel7A (Tr CBHI/Cel7A) (A0A024RXP8 18-514): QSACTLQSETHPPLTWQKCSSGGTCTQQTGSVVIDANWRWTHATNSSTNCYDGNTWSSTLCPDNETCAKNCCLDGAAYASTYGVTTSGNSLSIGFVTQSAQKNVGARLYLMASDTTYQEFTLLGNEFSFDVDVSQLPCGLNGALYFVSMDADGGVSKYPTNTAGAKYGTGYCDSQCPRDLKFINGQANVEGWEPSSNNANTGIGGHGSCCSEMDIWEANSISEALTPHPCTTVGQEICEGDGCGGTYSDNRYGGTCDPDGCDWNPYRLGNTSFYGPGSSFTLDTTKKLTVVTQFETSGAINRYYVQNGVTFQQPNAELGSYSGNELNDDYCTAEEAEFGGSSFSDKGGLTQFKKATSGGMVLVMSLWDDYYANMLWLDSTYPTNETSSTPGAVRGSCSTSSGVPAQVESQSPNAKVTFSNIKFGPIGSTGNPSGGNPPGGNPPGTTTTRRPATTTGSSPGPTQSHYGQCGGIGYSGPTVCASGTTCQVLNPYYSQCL
Method: as §1, §2

[5] = β-glucosidase activity on 4-nitrophenyl-β-D-glucopyranoside; details: purified β-glucosidase, 50° C.
Method: (§3) Acremonium Thermophilum ALKO4245 was grown as described in Example 1. The pure β-glucosidase was obtained by sequential purification with hydrophobic interaction and anion exchange chromatography followed by gel filtration. The β-glucosidase activity of the fractions collected during purification was determined using 4-nitrophenyl-β-D-glucopyranoside as substrate (Bailey and Linko, 1990). Protein content was measured by BioRad Assay Kit (Bio-Rad Laboratories) using bovine serum albumine as standard.
as §3, with “Thermoascus aurantiacus ALKO4242” for “Acremonium Thermophilum ALKO4245”, “interaction, anion” for “interaction”, “cation” for “anion”

[6] = Thermal stability of purified β-glucosidase; details: 0.1 mg/ml BSA, pH 5.0, 60 min, 4-nitrophenyl-β-D-glucopyranoside
Method: (§4) Thermal stability of the purified β-glucosidase was determined at different temperatures. The reaction was performed in the presence of 0.1 mg/ml BSA at pH 5.0 for 60 min using 4-nitrophenyl-β-D-glucopyranoside as substrate. A. thermophilum βG—101 was stable up to 70° C. The Aspergillus reference enzyme (Novozym 188) retained 100% of activity up to 60°.
as §4, with “T. aurantiacus βG—81” for “A. thermophilum βG—101”, “75°” for “70°”, “60° C.” for “60°.”

[7] = pH optimum of heterologously produced β-glucosidases; details: McIlvaine's buffer, pH range 3.0-8.0, 4-nitrophenyl-β-D-glucopyranoside
Method: (§5) The pH optimum of the heterologously produced β-glucosidases was determined in the universal McIlvaine's buffer within a pH range of 3.0-8.0 using 4-nitrophenyl-β-D-glucopyranoside as substrate. The pH optima for the Acremonium βG—101, Chaetomium βG—76, and Thermoascus βG—81 are pH 4.5, 5.5, and 4.5, respectively (FIG. 7 A). The optimal temperature for enzymatic activity of these β-glucosidases was determined at the temperature range of 50-85° C. as described above. The highest activity of the enzymes was determined to be at 70° C., 65° C., and 75° C. for the Acremonium βG—101/Cel3A, Chaetomium βG—76/Cel3A, and Thermoascus βG—81/Cel3A, respectively (FIG. 7 B).

[8] = Temperature optimum of heterologously produced β-glucosidases; details: temperature range 50-85° C., 60 min
Method: as §5

| Molecule | Ki [1] [µM] | higher inhibition constant as compared to that of Tr CBHI/Cel7A ([1]; At CBH/Cel7A vs Tr CBHI/Cel7A, cellobiose) | Type of inhibition ([1]; At Cel7A, CNPLac substrate, 50 mM sodium phosphate pH 5.7, 22° C.) | Ki [2] [µM] | Type of inhibition ([2]; Ct Cel7A, CNPLac substrate, 50 mM sodium phosphate pH 5.7, 22° C.) | Ki [3] [µM] | Type of inhibition ([3]; Ta Cel7A, CNPLac substrate, 50 mM sodium phosphate pH 5.7, 22° C.) | Ki [4] [µM] | Type of inhibition ([4]; Tr Cel7A (control), CNPLac substrate, 50 mM sodium phosphate pH 5.7, 22° C.) | Specific activity on 4-nitrophenyl-β-D-glucopyranoside [5] [nkat/mg] | Thermal stability: temperature up to which stable / 100% of activity retained [6] | pH optimum [7] | Temperature of highest activity [8] [°C] |
| --- | --- | --- | --- | --- | --- | --- | --- | --- | --- | --- | --- | --- | --- |
| OC[C@H]1O[C@@H](O[C@H]2[C@H](O)[C@@H](O)C(O)O[C@@H]2CO)[C@H](O)[C@@H](O)[C@@H]1O (stereo partly shown) [cellobiose] | 141 | over 7 fold | competitive | 39 | competitive | 107 | competitive | 19 | competitive |  |  |  |  |
| At βG_101: beta-glucosidase of Acremonium thermophilum ALKO4245, gene At cel3A, amino acid SEQ ID NO: 24 (protein) MRQALVSLALLASSPVSAARELATSDPFYPSPWMNPEANGWEDAYAKAKAFVSQLTLLEKVNLTTGIGWQGGQCVGNVGSVPRLGLRSLCMQDSPVGIRFGDYVSVFPSGQTTAATFDKGLMNRRGNAMGQEHKGKGVNVLLGPVAGPIGRTPEGGRNWEGFSPDPVLTGIALAETIKGIQDAGVIACAKHFIANEQEHFRQSGEAQGYGFDISESLSSNIDDKTMHELYLWPFADGVRAGVGAIMCSYNQINNSYGCQNSKTLNNLLKNELGFQGFVMSDWQAQHTGAASAVAGLDMTMPGDTSFNTGLSYWGTNLTLAVLNGTVPEYRIDDMVMRIMAAFFKTGQTLDLPPINFDSWTTDTFGPLHFAVNEDRQQINWHVNVQDNHGSLIREIAAKGTVLLKNTGSLPLNKPKFLVVVGDDAGPNPAGPNACPDRGCDVGTLGMAWGSGSANFPYLITPDAALQAQAIKDGTRYESVLSNYQLDQTKALVTQANATAIVFVNADSGEGYINVDGNEGDRKNLTLWHDGDALIKSVAGWNPNTIVVIHSTGPVLVTDWYDHPNITAILWAGVPGQESGNAITDVLYGKVNPSGRSPFTWGPTRESYGTDVLYTPNNGKGAPQQAFSEGVFIDYRHFDRTNASVIYEFGHGLSYTTFQYSNIQVVKSNAGAYKPTTGTTIPAPTFGSFSKDLKDYLFPSDQFRYITQYIYPYLNSTDPAKASLDPHYGKTAAEFLPPHALDSNPQPLLRSSGKNEPGGNRQLYDILYTVTADITNTGSIVGAEVPQLYVSLGGPDDPKVVLRGFDRIRIDPGKTAQFRVTLTRRDLSNWDPAIQDWVISKYPKKVYIGRSSRKLELSADLA |  |  |  |  |  |  |  |  |  | 1100 | up to 70 °C | 4.5 | 70 |
